Test results as given in patent publication US4965377A, “Process of forming 2-(2-bromo-2-nitroethenyl)-furan” (Great Lakes Chemical Corporation, priority 1989, dated 1990).
Converted amounts (≈) assume the structure as drawn. Like-named read-outs stand apart in the source and are kept apart here. Blank lines part the entries; values can stand above or below the compound they belong to.

Tests used:
[1] = test system: Pseudomonas aeruginosa; test: Minimum inhibitory concentration against Pseudomonas aeruginosa; format: cell-based
Procedure: (§1) All of the minimum inhibitory concentration determinations were made in a nutrient-rich growth medium in the following manner. Each organism was inoculated into a nutrient-rich medium that supported its growth. Various concentrations of a solution of the antimicrobial in THFA (90% THFA, 10% antimicrobial) were dosed into the inoculated growth medium; inoculated media were also dosed only with THFA (no antimicrobial)to serve as controls. Two concentrations of antimicrobial were recorded for each organism after growth in the controls was visible (the lowest concentration that prevented growth and the highest concentration that allowed growth); the MIC is reported as the range between these concentrations.

[2] = test system: Baccilus megaterium; test: Minimum inhibitory concentration against Bacillus megaterium; format: cell-based; conditions: Priestia megaterium, read-out: Minimum Inhibitory Conc
Procedure: as §1

[3] = test system: Chlorella pyrenoidosa; test: Minimum inhibitory concentration against Chlorella pyrenoidosa; format: cell-based; conditions: Auxenochlorella pyrenoidosa
Procedure: as §1

[4] = test system: Staphylococcus aureus; test: Minimum inhibitory concentration against Staphylococcus aureus; format: cell-based; conditions: Table 3, nutrient-rich growth medium, bacterium
Procedure: as §1

[5] = test system: Xanthomonas prunii; test: Minimum inhibitory concentration against Xanthomonas prunii; format: cell-based; conditions: Table 3, nutrient-rich growth medium, bacterium
Procedure: as §1

[6] = test system: Xanthomonas palargonii; test: Minimum inhibitory concentration against Xanthomonas palargonii; format: cell-based; conditions: Table 3, nutrient-rich growth medium, bacterium
Procedure: as §1

[7] = test system: Xanthomonas poinsettiacola; test: Minimum inhibitory concentration against Xanthomonas poinsettiacola; format: cell-based; conditions: Table 3, nutrient-rich growth medium, bacterium
Procedure: as §1

[8] = test system: Erwina chysanthemi; test: Minimum inhibitory concentration against Erwina chysanthemi; format: cell-based; conditions: Table 3; nutrient-rich growth medium; bacterium
Procedure: as §1

[9] = test system: Erwina anylovora; test: Minimum inhibitory concentration against Erwina anylovora; format: cell-based; conditions: Table 3; nutrient-rich growth medium; bacterium
Procedure: as §1

[10] = test system: Erwina caratovora; test: Minimum inhibitory concentration against Erwina caratovora; format: cell-based; conditions: Table 3; nutrient-rich growth medium; bacterium
Procedure: as §1

[11] = test system: Agrobacterium tumefaciens; test: Minimum inhibitory concentration against Agrobacterium tumefaciens; format: cell-based; conditions: Table 3, nutrient-rich growth medium, bacterium
Procedure: as §1

[12] = test system: Photobacterium phosphoreum; test: Minimum inhibitory concentration against Photobacterium phosphoreum; format: cell-based; conditions: Table 3, nutrient-rich growth medium, bacterium
Procedure: as §1

[13] = test system: Desulfovibro desulfuricans; test: Minimum inhibitory concentration against Desulfovibro desulfuricans; format: cell-based; conditions: Table 3; nutrient-rich growth medium; bacterium
Procedure: as §1

[14] = test system: Alternaria solani; test: Minimum inhibitory concentration against Alternaria solani; format: cell-based; conditions: Table 3, nutrient-rich growth medium, fungus
Procedure: as §1

[15] = test system: Asperillus niger; test: Minimum inhibitory concentration against Asperillus niger; format: cell-based; conditions: Table 3; nutrient-rich growth medium; fungus
Procedure: as §1

[16] = test system: Saccharomyces sp.; test: Minimum inhibitory concentration against Saccharomyces sp.; format: cell-based; conditions: Table 3; nutrient-rich growth medium; fungus (yeast)
Procedure: as §1

[17] = test system: Trichoderma virde; test: Minimum inhibitory concentration against Trichoderma virde; format: cell-based; conditions: Table 3, nutrient-rich growth medium, fungus
Procedure: as §1

[18] = test system: Rhizoctonia sp.; test: Minimum inhibitory concentration against Rhizoctonia sp.; format: cell-based; conditions: Table 3, nutrient-rich growth medium, fungus
Procedure: as §1

[19] = test system: Pseudomonas aeruginosa; test: Viability of Pseudomonas aeruginosa in phosphate buffered water (FIG. 1); format: cell-based; conditions: after 6 hours of contact, pH 7.2
Procedure: FIG. 1 illustrates a decrease in the viability of Pseudomonas aeruginosa, a common bacterial genus found in industrial cooling water upon contact with different concentrations of BNEF. The experiment was performed in phosphate buffered water at a pH of 7.2.

[20] = ASTM Pulp and Paper efficacy test (ASTM E600-85); format: cell-based; conditions: compared with two commercially successful antimicrobials
From the text: BNEF can also be used as an antimicrobial in pulp and paper manufacturing applications.

[21] = test system: bacteria; test: Metal working fluid preservation test, bacteria (FIG. 3); format: cell-based, bacteria from spoiled metal working fluid; conditions: soluble oil, semisynthetic, and synthetic fluids; 72 hours, room temperature
Procedure: (§2) In addition to pulp and paper manufacturing, BNEF can be used as a metal working fluid preservative. […] These tests were performed in the following manner. A typical soluble oil, semi-synthetic, and synthetic metalworking fluid were prepared with tap water at a ratio of 20:1. A field sample of "spoiled" fluid was mixed with a nutrient broth (50/50) and incubated for 24 hours to serve as the bacterial inoculum. Fungi isolated from metalworking fluids were grown on agar plates. The fungi were harvested into a suspension which then served as the fungal inoculum. At time zero, 50 ml aliquots of each fluid were prepared. The fluids were inoculated and dosed with the antimicrobial agent at different concentrations. Time zero bacterial and fungal counts were taken on each control fluid. The samples were then placed on a mechanical shaker (at room temperature) for 72 hours. Bacterial and fungal counts were then performed. The preferred level of BNEF in this application is in the range of 10 to 100 ppm.

[22] = test system: fungi; test: Metal working fluid preservation test, fungi; format: cell-based, fungi isolated from metalworking fluids; conditions: soluble oil, semisynthetic, and synthetic fluids; 72 hours, room temperature
Procedure: as §2

[23] = test system: naturally occurring microorganism in industrial cooling water; test: Efficacy in industrial cooling water, ASTM E-645-85 method (FIG. 4); format: cell-based; conditions: 5 ppm, 24 hours of contact
From the text: FIG. 4 is a graph showing the efficacy of 2-(2-bromo-2-nitroethenyl)-furan in industrial cooling water applications according to the ASTM E-645-85 method.
BNEF can also be used in water treatment such as for example treatment of industrial cooling water. […] Shorter contact times require a higher concentration of BNEF in the application. Preferably an antimicrobially effective amount of BNEF should be added to reduce the viability of microorganisms by at least 90 percent. It is especially preferred to employ about 1 ppm to about 5 ppm of BNEF.

[24] = Kinetics of disinfection in phosphate buffer (FIG. 5); format: cell-based; conditions: 10 ppm (w/v); phosphate buffer pH 7.0
From the text: FIG. 5 is a graph showing the kinetics of disinfection of 2-(2-bromo-2-nitroethenyl)-furan in comparison to its styrene analogue.

[25] = test system: Pseudomonas aeruginosa; test: Contact time required for 99.9% reduction in viability of Pseudomonas aeruginosa in water; format: cell-based
Procedure: Virtually all modern water treatment applications are alkaline. Even in an alkaline condition, BNEF is quite active. Data in Table 2 show the contact time of BNEF required for a 99.9% reduction in Viability of Pseudomonas aeruginosa in water. Several pure culture cell suspensions of Pseudomonas aeruginosa were prepared in phosphate-buffered water that had been adjusted to pH 7.0 or pH 8.1. The initial concentration of viable cells was determined by counting colony forming-units in the standard spread plate method. A tetrahydrofurfuryl alcohol (THFA) solution containing the antimicrobial (90% THFA, 10% antimicrobial) was added to cell suspensions at each pH such that 10 ppm of the antimicrobial was dosed. Similarly, THFA was added without antimicrobial to cell suspensions at each pH value to serve as no-treatment controls. The concentration of viable cells was then determined at regular time intervals for all of the cell suspensions until at least 99.9% reduction in viability (compared to the controls) was achieved by the antimicrobial treatment.

[26] = test system: bacteria and algae; test: Antimicrobial activity, general statement
[27] = Table 4, analogues, read-out: MIC Against Pseudomonas aeruginosa
[28] = read-out: Minimum Inhibitory Conc
[29] = Table 1, read-out: Minimum Inhibitory Conc
[30] = Table 1, Chlorella pyrenoidosa, read-out: Minimum Inhibitory Conc

Compound: O=CC=Cc1ccco1 [3-(2-furyl)acrolein]
MIC [1, 28]: 250 to 500 µg/mL (≈ 2050 to 4090 µM) | MIC [2]: 250 to 500 µg/mL (≈ 2050 to 4090 µM) | MIC [3, 28]: 16 to 63 µg/mL (≈ 131 to 516 µM)

Compound: O=[N+]([O-])C(Br)=Cc1ccco1 [BNEF, 2-(2-bromo-2-nitroethenyl)-furan]
MIC [1, 29]: 5 to 10 µg/mL (≈ 22.9 to 45.9 µM) | MIC ([2]; Table 1, Baccilus megaterium): 5 to 10 µg/mL (≈ 22.9 to 45.9 µM) | MIC [3, 30]: 4 to 16 µg/mL (≈ 18.3 to 73.4 µM) | MIC ([3]; Table 3, nutrient-rich growth medium, algae, read-out: MIC): 4 to 16 µg/mL (≈ 18.3 to 73.4 µM) | MIC [4]: 3 to 7.6 µg/mL (≈ 13.8 to 34.9 µM) | MIC [5]: 2 to 5 µg/mL (≈ 9.17 to 22.9 µM) | MIC [6]: 1 to 2 µg/mL (≈ 4.59 to 9.17 µM) | MIC [7]: 0.5 to 1 µg/mL (≈ 2.29 to 4.59 µM) | MIC [8]: 0.5 to 1 µg/mL (≈ 2.29 to 4.59 µM) | MIC [9]: < 0.5 µg/mL | MIC [10]: 0.5 to 1 µg/mL (≈ 2.29 to 4.59 µM) | MIC [11]: 0.5 to 1 µg/mL (≈ 2.29 to 4.59 µM) | MIC [12]: 1 to 5 µg/mL (≈ 4.59 to 22.9 µM) | MIC [13]: < 2 µg/mL | MIC [14]: < 1 µg/mL | MIC [15]: < 1 µg/mL | MIC [16]: < 3 µg/mL | MIC [17]: < 5 µg/mL | MIC [18]: < 1 µg/mL | concentration required to eliminate 99.9% of the test inoculum [19]: about 10 ppm | activity in Pulp and Paper efficacy test [20]: at least as active as two commercially successful antimicrobials | effectiveness in metal working fluids against bacteria [21]: effective | effectiveness in metal working fluids against fungi [22]: effective | reduction in viability [23]: ~99% | effectiveness compared to β-bromo-β-nitrostyrene [24]: as effective as an antimicrobial in water treatment application as β-bromo-β-nitrostyrene | Required Contact Time (99.9% reduction) ([25]; 10 ppm, pH 7.0, Initial Cell Concentration 3.2 × 10^4): 5 h | Required Contact Time (99.9% reduction) ([25]; 10 ppm, pH 8.1, Initial Cell Concentration ~1.0 × 10^4): 1 h | disinfection rate, effect of pH ([25]; 10 ppm, pH level of 8 compared to pH level of 7): faster at a pH level of 8 | antimicrobial activity ([26]; summary of Table 1): active at very low concentrations

Compound: O=[N+]([O-])C(Br)=Cc1ccccc1 [β-bromo-β-nitrostyrene, reference compound]
disinfection rate, effect of higher pH ([25]; β-bromo-β-nitrostyrene, source of finding not stated): Increased disinfection rate with higher pH

Compound: O=[N+]([O-])C(Br)=Cc1ccc([N+](=O)[O-])o1 [5-nitro-2-(2-bromo-2-nitroethenyl)-furan]
MIC ([1]; read-out: MIC Against Pseudomonas aeruginosa): 8 to 16 µg/mL (≈ 30.4 to 60.8 µM)

Second part, led by results:

MIC [1, 27]: 21 to 42 µg/mL (≈ 89.7 to 179 µM)
Compound: O=[N+]([O-])C(Br)=Cc1cccs1 [2-(2-bromo-2-nitroethenyl)-thiophene]

MIC [1, 29]: 6 to 12 µg/mL (≈ 42.5 to 85.1 µM) | MIC ([2]; Table 1, Baccilus megaterium): 3 to 6 µg/mL (≈ 21.3 to 42.5 µM) | MIC [3, 30]: 4 to 16 µg/mL (≈ 28.4 to 113 µM)
Compound: O=Cc1ccc([N+](=O)[O-])o1 [5-nitro-2-furaldehyde]

MIC [1, 29]: > 1000 µg/mL | MIC ([2]; Table 1, Baccilus megaterium): > 1000 µg/mL | MIC [3, 30]: 250 to 1000 µg/mL (≈ 2660 to 10600 µM)
Compound: C=Cc1ccco1 [furylethylene]

MIC [1, 27]: 21 to 42 µg/mL (≈ 90.5 to 181 µM)
Compound: Cc1ccc(C=C(Br)[N+](=O)[O-])o1 [5-methyl-2-(2-bromo-2-nitroethenyl)-furan]

MIC [1, 29]: 63 to 125 µg/mL (≈ 453 to 899 µM) | MIC ([2]; Table 1, Baccilus megaterium): 63 to 125 µg/mL (≈ 453 to 899 µM) | MIC [3, 30]: 16 to 63 µg/mL (≈ 115 to 453 µM)
Compound: O=[N+]([O-])C=Cc1ccco1 [2-nitro-1-(2-furyl)ethylene, reference compound]
antimicrobial activity relative to BNEF ([26]; background statement): lower antimicrobial activity

MIC [1, 27]: 10 to 20 µg/mL (≈ 33.7 to 67.4 µM)
Compound: O=[N+]([O-])C(Br)=Cc1ccc(Br)o1 [5-bromo-2-(2-bromo-2-nitroethenyl)-furan]
